How the values were obtained:
[1] = tested on: S. aureus DSM 20231; experiment: Bliss interaction score (quartile over a dose matrix) (fitness difference); higher = more antagonism (negative = synergy)
Method in brief: (§1)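 Combination data were used to infer fitness under each single drug. Fitness is the OD595 at entry into stationary phase divided by the robust mean of the plate's no-drug wells, with a cap of 1. The Bliss score is the observed minus the expected product fitness, summarised by quartiles over technical, biological and donor/recipient replicates.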

[2] = tested on: B. subtilis 168; experiment: as above
Method in brief: as §1

[3] = tested on: S. pneumoniae D39V; experiment: as above
Method in brief: as §1

[4] = tested on: S. aureus Newman; experiment: as above
Method in brief: as §1

[5] = tested on: S. aureus DSM 20231; experiment: fitness (endpoint OD595 vs no drug) (fraction); higher = more growth
Method in brief: (§2)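 Each well of a 384-well plate received 30 µl of culture at OD595 0.01, or 55 µl for S. pneumoniae. TSB, LB Lennox or CY served as media at 37 °C. OD595 was taken every 30 min for 14 h and corrected by subtracting the first reading. Fitness is the optical density at stationary-phase entry divided by the robust mean of no-drug controls, capped at 1.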

[6] = tested on: S. pneumoniae D39V; experiment: as above
Method in brief: as §2

[7] = tested on: S. aureus Newman; experiment: as above
Method in brief: as §2
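Throughout, for Bliss interaction score (quartile over a dose matrix): first quartile when negative (synergy) and third quartile when positive (antagonism).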

C[C@@H]1O[C@@H]1P(=O)(O)O [Fosfomycin] + Cn1nnc(-c2ccc(-c3ccc(N4C[C@H](CO)OC4=O)cc3F)cn2)n1 [Tedizolid]
Details	Bliss interaction score
[1]	0.069
[2]	0.0967
[3]	0.0919
[4]	-0.128

fitness
Details	partner 0.03125 µg/mL	partner 0.0625 µg/mL	partner 0.125 µg/mL	partner 0.25 µg/mL	partner 0.5 µg/mL
[5], first compound 0.781 µg/mL	–	0.693	0.497	0.091	–
[5], first compound 1.562 µg/mL	–	0.66	0.372	0.0334	–
[5], first compound 3.124 µg/mL	–	0.493	0.202	0.0354	–
[6], first compound 1.25 µg/mL	0.951	0.95	0.813	0.43	0.138
[6], first compound 2.5 µg/mL	0.936	0.906	0.792	0.455	0.132
[6], first compound 5 µg/mL	0.89	0.911	0.783	0.437	0.151
[7], first compound 0.781 µg/mL	–	0.52	–	–	–
[7], first compound 1.562 µg/mL	–	–	–	0.101	–
[7], first compound 3.124 µg/mL	–	0.106	0.0423	0.0102	–

C[C@@H]1O[C@@H]1P(=O)(O)O [Fosfomycin] + CN[C@H](CC(C)C)C(=O)N[C@H]1C(=O)N[C@@H](CC(N)=O)C(=O)N[C@H]2C(=O)N[C@H]3C(=O)N[C@H](C(=O)N[C@H](C(=O)O)c4cc(O)cc(O)c4-c4cc3ccc4O)[C@H](O)c3ccc(c(Cl)c3)Oc3cc2cc(c3O[C@@H]2O[C@H](CO)[C@@H](O)[C@H](O)[C@H]2O[C@H]2C[C@](C)(N)[C@H](O)[C@H](C)O2)Oc2ccc(cc2Cl)[C@H]1O [Vancomycin]
Details	Bliss interaction score
[1]	0.0454
[2]	0.029
[3]	-0.0646
[4]	0.103

Details	fitness
[5], first compound 0.781 µg/mL, partner 0.1875 µg/mL	0.757
[5], first compound 0.781 µg/mL, partner 0.375 µg/mL	0.751
[5], first compound 0.781 µg/mL, partner 0.75 µg/mL	0.757
[5], first compound 1.562 µg/mL, partner 0.1875 µg/mL	0.596
[5], first compound 1.562 µg/mL, partner 0.375 µg/mL	0.638
[5], first compound 1.562 µg/mL, partner 0.75 µg/mL	0.624
[5], first compound 3.124 µg/mL, partner 0.1875 µg/mL	0.525
[5], first compound 3.124 µg/mL, partner 0.375 µg/mL	0.546
[5], first compound 3.124 µg/mL, partner 0.75 µg/mL	0.542
[6], first compound 1.25 µg/mL, partner 0.03125 µg/mL	0.97
[6], first compound 1.25 µg/mL, partner 0.0625 µg/mL	0.916
[6], first compound 1.25 µg/mL, partner 0.125 µg/mL	0.905
[6], first compound 1.25 µg/mL, partner 0.5 µg/mL	0.0887
[6], first compound 2.5 µg/mL, partner 0.03125 µg/mL	0.87
[6], first compound 2.5 µg/mL, partner 0.0625 µg/mL	0.869
[6], first compound 2.5 µg/mL, partner 0.125 µg/mL	0.888
[6], first compound 2.5 µg/mL, partner 0.5 µg/mL	0.0855
[6], first compound 5 µg/mL, partner 0.03125 µg/mL	0.719
[6], first compound 5 µg/mL, partner 0.0625 µg/mL	0.726
[6], first compound 5 µg/mL, partner 0.25 µg/mL	0.255
[6], first compound 5 µg/mL, partner 0.5 µg/mL	0.0851
[7], first compound 0.781 µg/mL, partner 0.1875 µg/mL	0.649
[7], first compound 0.781 µg/mL, partner 0.375 µg/mL	0.628
[7], first compound 0.781 µg/mL, partner 0.75 µg/mL	0.655
[7], first compound 1.562 µg/mL, partner 0.1875 µg/mL	0.555
[7], first compound 1.562 µg/mL, partner 0.375 µg/mL	0.563
[7], first compound 1.562 µg/mL, partner 0.75 µg/mL	0.548
[7], first compound 3.124 µg/mL, partner 0.1875 µg/mL	0.279
[7], first compound 3.124 µg/mL, partner 0.375 µg/mL	0.255
[7], first compound 3.124 µg/mL, partner 0.75 µg/mL	0.245

COc1cccc2c1C(=O)c1c(O)c3c(c(O)c1C2=O)C[C@@](O)(C(=O)CO)C[C@@H]3O[C@H]1C[C@H](N)[C@H](O)[C@H](C)O1 [Doxorubicin] + Cn1nnc(-c2ccc(-c3ccc(N4C[C@H](CO)OC4=O)cc3F)cn2)n1 [Tedizolid]
Details	Bliss interaction score
[1]	-0.0759
[2]	0.0912
[3]	-0.0807
[4]	-0.0534

fitness
Details	partner 0.03125 µg/mL	partner 0.0625 µg/mL	partner 0.125 µg/mL	partner 0.25 µg/mL	partner 0.5 µg/mL
[5], first compound 0.625 µg/mL	–	0.813	0.728	0.339	–
[5], first compound 1.25 µg/mL	–	0.783	0.7	0.374	–
[5], first compound 2.5 µg/mL	–	0.738	0.673	–	–
[6], first compound 0.25 µg/mL	0.897	0.909	0.747	0.288	0.131
[6], first compound 0.5 µg/mL	0.903	0.938	0.748	0.288	0.114
[6], first compound 1 µg/mL	0.917	0.953	0.774	0.282	0.11
[7], first compound 0.625 µg/mL	–	0.786	0.758	–	–
[7], first compound 1.25 µg/mL	–	0.751	0.731	–	–
[7], first compound 2.5 µg/mL	–	0.693	0.655	–	–

CO/N=C(\C(=O)N[C@@H]1C(=O)N2C(C(=O)O)=C(COC(C)=O)CS[C@H]12)c1csc(N)n1 [Cefotaxime] + Cn1nnc(-c2ccc(-c3ccc(N4C[C@H](CO)OC4=O)cc3F)cn2)n1 [Tedizolid]
Details	Bliss interaction score
[1]	0.114
[2]	0.0923
[3]	0.0955
[4]	-0.105

[5], first compound 0.039 µg/mL, one replicate
Details	fitness
partner 0.0625 µg/mL	0.806
partner 0.125 µg/mL	0.762
partner 0.25 µg/mL	0.643

fitness
Details	partner 0.03125 µg/mL	partner 0.0625 µg/mL	partner 0.125 µg/mL	partner 0.25 µg/mL	partner 0.5 µg/mL
[5], first compound 0.078 µg/mL	–	0.767	0.718	0.532	–
[5], first compound 0.156 µg/mL	–	0.761	0.608	0.509	–
[5], first compound 0.312 µg/mL	–	0.691	0.602	0.448	–
[6], first compound 0.0018 µg/mL	0.968	0.969	0.844	0.482	0.172
[6], first compound 0.0035 µg/mL	0.953	0.972	0.847	0.468	0.14
[6], first compound 0.007 µg/mL	0.95	0.958	0.812	0.427	0.104
[7], first compound 0.078 µg/mL	–	0.592	0.475	0.217	–
[7], first compound 0.156 µg/mL	–	0.455	0.338	0.0974	–
[7], first compound 0.312 µg/mL	–	0.232	0.145	0.0726	–
[7], first compound 0.625 µg/mL	–	0.0654	0.0082	0.0399	–
[7], first compound 1.25 µg/mL	–	0.021	0.0172	0.03	–
[7], first compound 2.5 µg/mL	–	0.0122	0.0108	0.0325	–

Cc1ncc([N+](=O)[O-])n1CCO [Metronidazole] + Cn1nnc(-c2ccc(-c3ccc(N4C[C@H](CO)OC4=O)cc3F)cn2)n1 [Tedizolid]
Details	Bliss interaction score
[1]	0.0997
[2]	-0.0352
[3]	-0.0886
[4]	0.105

fitness
Details	partner 0.03125 µg/mL	partner 0.0625 µg/mL	partner 0.125 µg/mL	partner 0.25 µg/mL	partner 0.5 µg/mL
[5], first compound 0.625 µg/mL	–	0.966	0.842	–	–
[5], first compound 1.25 µg/mL	–	0.91	0.839	0.552	–
[5], first compound 2.5 µg/mL	–	0.982	0.851	–	–
[6], first compound 1.073 µg/mL	–	–	0.768	0.856	–
[6], first compound 1.25 µg/mL	0.959	0.98	0.831	–	–
[6], first compound 2.145 µg/mL	–	–	0.807	0.845	0.255
[6], first compound 2.5 µg/mL	0.974	0.998	0.85	–	–
[6], first compound 4.29 µg/mL	–	–	0.814	0.838	0.259
[6], first compound 5 µg/mL	0.958	0.971	0.85	–	–
[7], first compound 0.625 µg/mL	–	0.985	0.875	0.521	–
[7], first compound 0.781 µg/mL	–	0.954	0.861	–	–
[7], first compound 1.25 µg/mL	–	0.948	0.89	0.509	–
[7], first compound 1.562 µg/mL	–	0.951	0.88	–	–
[7], first compound 2.5 µg/mL	–	0.93	0.874	–	–
[7], first compound 3.124 µg/mL	–	0.957	0.866	–	–

COc1cccc2c1C(=O)c1c(O)c3c(c(O)c1C2=O)C[C@@](O)(C(=O)CO)C[C@@H]3O[C@H]1C[C@H](N)[C@H](O)[C@H](C)O1 [Doxorubicin] + CN[C@H](CC(C)C)C(=O)N[C@H]1C(=O)N[C@@H](CC(N)=O)C(=O)N[C@H]2C(=O)N[C@H]3C(=O)N[C@H](C(=O)N[C@H](C(=O)O)c4cc(O)cc(O)c4-c4cc3ccc4O)[C@H](O)c3ccc(c(Cl)c3)Oc3cc2cc(c3O[C@@H]2O[C@H](CO)[C@@H](O)[C@H](O)[C@H]2O[C@H]2C[C@](C)(N)[C@H](O)[C@H](C)O2)Oc2ccc(cc2Cl)[C@H]1O [Vancomycin]
Details	Bliss interaction score
[1]	-0.0449
[2]	-0.0982
[3]	0.048
[4]	-0.0426

Details	fitness
[5], first compound 0.625 µg/mL, partner 0.1875 µg/mL	0.843
[5], first compound 0.625 µg/mL, partner 0.375 µg/mL	0.869
[5], first compound 0.625 µg/mL, partner 0.75 µg/mL	0.888
[5], first compound 1.25 µg/mL, partner 0.1875 µg/mL	0.84
[5], first compound 1.25 µg/mL, partner 0.375 µg/mL	0.927
[5], first compound 1.25 µg/mL, partner 0.75 µg/mL	0.894
[5], first compound 2.5 µg/mL, partner 0.1875 µg/mL	0.787
[5], first compound 2.5 µg/mL, partner 0.375 µg/mL	0.952
[5], first compound 2.5 µg/mL, partner 0.75 µg/mL	0.907
[6], first compound 0.25 µg/mL, partner 0.03125 µg/mL	0.92
[6], first compound 0.25 µg/mL, partner 0.0625 µg/mL	0.851
[6], first compound 0.25 µg/mL, partner 0.125 µg/mL	0.88
[6], first compound 0.25 µg/mL, partner 0.5 µg/mL	0.0816
[6], first compound 0.5 µg/mL, partner 0.03125 µg/mL	0.924
[6], first compound 0.5 µg/mL, partner 0.0625 µg/mL	0.898
[6], first compound 0.5 µg/mL, partner 0.125 µg/mL	0.913
[6], first compound 0.5 µg/mL, partner 0.5 µg/mL	0.0725
[6], first compound 1 µg/mL, partner 0.03125 µg/mL	0.865
[6], first compound 1 µg/mL, partner 0.0625 µg/mL	0.8
[6], first compound 1 µg/mL, partner 0.25 µg/mL	0.377
[6], first compound 1 µg/mL, partner 0.5 µg/mL	0.0604
[7], first compound 0.625 µg/mL, partner 0.1875 µg/mL	0.849
[7], first compound 0.625 µg/mL, partner 0.375 µg/mL	0.825
[7], first compound 0.625 µg/mL, partner 0.75 µg/mL	0.851
[7], first compound 1.25 µg/mL, partner 0.1875 µg/mL	0.823
[7], first compound 1.25 µg/mL, partner 0.375 µg/mL	0.814
[7], first compound 1.25 µg/mL, partner 0.75 µg/mL	0.794
[7], first compound 2.5 µg/mL, partner 0.1875 µg/mL	0.764
[7], first compound 2.5 µg/mL, partner 0.375 µg/mL	0.745
[7], first compound 2.5 µg/mL, partner 0.75 µg/mL	0.731
